{
  "source": "patent US20210361677A1",
  "about": "“DOSING METHODS FOR TREATING INFLAMMATORY BOWEL CONDITIONS” (priority 2020, published 2021)",
  "origin": "cited, not measured here",
  "details": "enema by prior methods, two patients, FIG. 1",
  "data": [
    {"smiles": "Nc1ccc(O)c(C(=O)O)c1", "note": "[5-ASA, 5-aminosalicylic acid]", "values": [
      {"measurement": "systemic (plasma) levels of 5-ASA after bowel movements", "result": "dramatically lower"}
    ]}
  ]
}
